Experimental data taken from patent US6143764A, “Quinoline and quinazoline derivatives inhibiting platelet-derived growth factor receptor autophosphorylation and pharmaceutical compositions containing the same” (priority 1995, dated 2000).
Where two headings read alike, the source gives them in different places.

Assays:
[1] = test system: glomerulonephritis associated with mesangial cell growth in rats; test: Effect on nephritis associated with mesangial cell growth in rats (OX-7 induced glomerulonephritis); type: in vivo, Wistar-Kyoto rat; conditions: 8 days
Method: Effect on nephritis associated with mesangial cell growth in rats
Groups of 6 Wistar-Kyoto male rats (7 weeks old, purchased from Charles River Japan, Inc.) were used. OX-7 (prepared according to Pathol. Int., 45, 409 (1995)), a monoclonal antibody against anti-rat Thy1.1, was injected intravenously into the tails of rats at a dose of 1.2 mg/kg to induce glomerulonephritis associated with mesangial cell growth and extracellular matrix accumulation. A test drug suspended in a vehicle, a 1% aqueous cremophor solution, was administered orally 2 times a day starting one day after an OX-7 injection for 8 consecutive days. On day 9, when pathological changes in glomeruli became markedly apparent, the rats were sacrificed and anatomized under anesthesia with ether, and left kidneys were taken out and fixed in formalin. The kidneys were embedded in paraffin and then sectioned thinly, and the sections were stained with a periodic acid-Schiff's reagent. The 20 glomeruli were arbitrarily selected for individual specimens thus prepared, and pathological sclerotic changes were scored as follows:
Average scores for sclerotic change of individual specimens were calculated to quantify the degree of glomerular sclerosis. Average scores of glomerular sclerosis for individual specimens of rat groups administered with the drug were compared with those for control groups administered with the vehicle only to calculate glomerular sclerosis inhibition rates (%). The significance of differences was determined by the Dunnet method after testing homoscedasticity according to the Bartlett method.

PDGF receptor = biological target: T1, PDGF receptor (Rattus norvegicus, UniProt Q05030); test: PDGF receptor autophosphorylation inhibition in cultured rat mesangial cells; type: cell-based; conditions: PDGF-BB 50 ng/ml
T1 construct: cultured rat mesangial cells which are known to have the PDGF receptor; endogenous in cells; host or cells: primary mesangial cells cultured from glomeruli of Wistar-Kyoto rats (Charles River Japan), more than 5 passages
T1 sequence (Q05030 32-1097): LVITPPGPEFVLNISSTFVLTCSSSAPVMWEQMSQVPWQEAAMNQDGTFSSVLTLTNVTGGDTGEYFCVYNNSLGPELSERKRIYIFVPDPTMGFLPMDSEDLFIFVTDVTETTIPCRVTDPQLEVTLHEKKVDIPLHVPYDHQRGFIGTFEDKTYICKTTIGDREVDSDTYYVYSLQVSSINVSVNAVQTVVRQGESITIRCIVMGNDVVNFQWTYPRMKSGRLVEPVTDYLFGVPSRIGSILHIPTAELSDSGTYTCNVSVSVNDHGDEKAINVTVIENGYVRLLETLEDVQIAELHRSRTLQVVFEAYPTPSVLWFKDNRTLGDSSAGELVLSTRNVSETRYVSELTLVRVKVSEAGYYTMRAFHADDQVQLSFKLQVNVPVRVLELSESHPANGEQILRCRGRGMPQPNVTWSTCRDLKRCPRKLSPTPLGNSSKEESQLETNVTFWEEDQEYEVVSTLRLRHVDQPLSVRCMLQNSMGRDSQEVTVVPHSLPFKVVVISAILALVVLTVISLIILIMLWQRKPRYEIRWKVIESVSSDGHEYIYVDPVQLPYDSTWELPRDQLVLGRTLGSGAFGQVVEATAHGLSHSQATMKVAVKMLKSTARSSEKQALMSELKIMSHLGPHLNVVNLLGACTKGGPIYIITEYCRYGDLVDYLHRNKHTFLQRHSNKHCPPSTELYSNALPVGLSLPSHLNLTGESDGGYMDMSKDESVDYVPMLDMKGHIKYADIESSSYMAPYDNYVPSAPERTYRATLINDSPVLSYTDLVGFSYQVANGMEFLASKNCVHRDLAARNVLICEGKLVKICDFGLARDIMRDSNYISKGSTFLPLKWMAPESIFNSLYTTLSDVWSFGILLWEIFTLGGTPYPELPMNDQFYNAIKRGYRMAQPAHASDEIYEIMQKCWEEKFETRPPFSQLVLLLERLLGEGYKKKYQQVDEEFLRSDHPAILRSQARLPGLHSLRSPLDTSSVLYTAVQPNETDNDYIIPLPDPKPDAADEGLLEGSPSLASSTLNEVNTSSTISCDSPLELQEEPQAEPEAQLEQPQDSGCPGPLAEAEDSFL
Method in brief: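 Growth-arrested rat mesangial cells (>5 passages, 0.5% FCS for 3 days) preincubated with drug in 0.1% BSA medium for 1 h at 37° C., then stimulated with 50 ng/ml human PDGF-BB for 10 min. Phosphotyrosine Western blot of ~180 kDa receptor band by densitometry, normalized to PDGF-stimulated (100%) and unstimulated (0%) wells.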

COL-1 (colon) = test: Antitumor effect against COL-1 colon tumor in nude mice; type: in vivo; conditions: 100 mg/kg intraperitoneally once a day, 9 days
Method: (§1) Human glioma, GLO7 (obtained from the Central Institute for Experimental Animals), was transplanted into nude mice. When the tumor had grown to a volume of about 100 mm^3, the nude mice were divided into several groups of 4 animals so as to equalize the average tumor volumes of each group. The test drug was administered orally to animals in experimental groups 2 times a day for 14 consecutive days at 100 mg/kg, and the vehicle was administered to control animals. The tumor growth inhibition rate (TGIR, %) was calculated from the equation: TGIR=(1-Tx/Cx)×100, in which Cx is the tumor volume in the control mice and Tx is the tumor volume in the drug-treated mice, on day X, when the initial tumor volume at the time treatment was commenced is set 1.
(§2) In the same manner as described in 2, various types of tumor cells (obtained from the Central Institute for Experimental Animals) were transplanted into nude mice. When the tumor had grown to a volume of about 100 mm^3, the animals were allocated to several groups each consisting of 4 animals so as to equalize the average tumor volume of each group. Test drugs were administered intraperitoneally to animals in experimental groups once a day for 9 consecutive days at 100 mg/kg, and the vehicle was administered to control animals.

St-4 (stomach) = test: Antitumor effect against St-4 stomach tumor in nude mice; type: in vivo; conditions: 100 mg/kg intraperitoneally once a day, 9 days
Method: as §1, §2

[2] = test system: human glioma cells (GLO7); test: Antitumor effect of compound number 43 against human glioma (GLO7), nude mice xenograft; type: in vivo; conditions: 100 mg/kg orally 2 times a day, 14 days, test period about 4 weeks
Method: as §1, with “1. During the test period of about 4 weeks, the maximum TGIR value was 76%, and thus an excellent antitumor effect was observed.” for “1.”

[3] = test system: collagen-induced arthritis in mice; test: Effect on collagen-induced arthritis in mice; type: in vivo, mouse (DBA/lJNCrj); conditions: for Number of mice with arthritis/total mice: 16 days; for Incidence of collagen-induced arthritis: 16 days (vehicle 70)
L-27 (lung) = test: Antitumor effect against L-27 lung tumor in nude mice; type: in vivo; conditions: 100 mg/kg intraperitoneally once a day, 9 days
Method: as §1, §2

[4] = test system: mouse leukemia cells (P388); test: Antitumor effect against mouse leukemia cells (P388), survival of mice; type: in vivo; conditions: CDF1 mice, 100 mg/kg intraperitoneally, 9 consecutive days
Method: P388 cells (1×10^5 cells), mouse leukemia cells obtained from ATCC, were inoculated intraperitoneally into CDF1 mice (obtained from Japan SLC, Inc.), and then the test compound was administered intraperitoneally for 9 consecutive days at the dose of 100 mg/kg. The drug-treated animals survived longer than control animals by 130%.

human glioma (GLO7) = test: Antitumor effect of the compounds against human glioma (GLO7), nude mice xenograft; type: in vivo; conditions: Mus musculus, po, 216 h, read-out: Tumor growth inhibition rate (TGIR)
Method: Analogously to 2, human glioma cells, GLO7 (obtained from the Central Institute for Experimental Animals), was transplanted into nude mice. When the tumor had grown to a volume of about 100 mm^3, the nude mice were divided into several groups of 4 animals so as to equalize the average tumor volumes of each group. The test drug was administered orally to animals in experimental groups once a day for 9 consecutive days at 50 mg/kg, and the vehicle was administered to control animals. The tumor growth inhibition rate (TGIR, %) was calculated from the equation: TGIR=(1-Tx/Cx)×100, in which Cx is the tumor volume in the control mice and Tx is the tumor volume in the drug-treated mice, on day X, when the initial tumor volume at the time treatment was commenced is set 1.

[5] = nude mice, 50 mg/kg orally once a day, 9 days

| SMILES | IC50 (PDGF receptor) | Tumor growth inhibition rate (TGIR) (COL-1 (colon)) | Tumor growth inhibition rate (TGIR) (St-4 (stomach)) | Tumor growth inhibition rate (TGIR) (L-27 (lung)) | inhibition in vivo at 50 mg/kg (human glioma (GLO7); [5]) | also measured |
| --- | --- | --- | --- | --- | --- | --- |
| COc1cc2nccc(Oc3ccc(C(=O)c4ccc(C(C)(C)C)cc4)cc3)c2cc1OC [Compound 32, (4-t-Butylphenyl){4-[(6,7-dimethoxy-4-quinolyl)oxy]phenyl}methanone] | 300 nM | – | – | – | – | Glomerular sclerosis inhibition rate ([1]; 10 mg/kg oral 2 times a day, p < 0.05): 11.7%; Glomerular sclerosis inhibition rate ([1]; 30 mg/kg oral 2 times a day, p < 0.05): 10.2%; Glomerular sclerosis inhibition rate ([1]; 100 mg/kg oral 2 times a day, p < 0.01): 13.7% |
| COc1ccc(NC(=O)Nc2ccc(Oc3ccnc4cc(OC)c(OC)cc34)cc2)cc1 [Compound 43, N-(4-Methoxyphenyl)-N'-{4-[(6,7-dimethoxy-4-quinolinyl)oxy]phenyl}urea] | 5 nM | 68% | 78% | 83% | – | maximum tumor growth inhibition rate (TGIR) [2]: 76%; Number of mice with arthritis/total mice ([3]; 10 mg/kg intraperitoneally): 1/9; Incidence of collagen-induced arthritis ([3]; 10 mg/kg intraperitoneally): 11%; Number of mice with arthritis/total mice ([3]; 100 mg/kg intraperitoneally): 0/10; Incidence of collagen-induced arthritis ([3]; 100 mg/kg intraperitoneally): 0%; prolonged survival: drug-treated animals survived longer than control animals by [4]: 130% |
| COc1cccc(NC(=O)Nc2ccc(Oc3ccnc4cc(OC)c(OC)cc34)cc2)c1 [Compound 58] | – | 74% | 86% | 96% | – | inhibition in vivo at 50 mg/kg (human glioma (GLO7)): 57% |
| COc1cc2nccc(Oc3ccc(NC(=O)Nc4cccc(Cl)c4)cc3)c2cc1OC [Compound 267, N-(3-Chlorophenyl)-N'-{4-[(6,7-dimethoxy-4-quinolyl)oxy]phenyl}urea] | 150 nM | – | – | – | 65% | – |
| COc1ccc(Cl)cc1NC(=O)Nc1ccc(Oc2ccnc3cc(OC)c(OC)cc23)cc1 [Compound 227, N-(3-Chloro-6-methoxyphenyl)-N'-{4-[(6,7-dimethoxy-4-quinolyl)oxy]phenyl}urea] | 73 nM | – | – | – | 78% | – |
